# Measured values taken from patent publication US9695155B2, “Herbicidal substituted pyrimidinyloxy benzene compounds” (E. I. DU PONT DE NEMOURS AND COMPANY, priority 2013, dated 2017).
# Experiments:
# barnyardgrass [1] = experiment: Test B flooded paddy test; format: in vivo, Echinochloa crus-galli; conditions: Flood, 250 g ai/ha; 0 to 100 scale where 0 is no effect and 100 is complete control
# In short: (§1)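 Compound added straight to paddy water, with pots kept flooded 3 cm above soil, on plants grown to the 2-leaf stage. Visual scoring 0-100 (100 = complete control) against untreated controls after 13 to 15 greenhouse days.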
# corn = experiment: Test C postemergence; format: in vivo, Zea mays; conditions: for Plant response rating, Corn: scale 0 to 100 (0 no effect, 100 complete control)
# In short: (§2)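 Visual ratings on a 0–100 scale (100 = complete control) were made versus untreated controls after 13–15 greenhouse days. Chemicals in a surfactant-containing non-phytotoxic solvent were applied either preemergence to seeds in loam–sand soil or postemergence to 1- to 4-leaf plants 2–18 cm tall.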
# pigweed [2] = experiment: Test A postemergence; format: in vivo, Amaranthus retroflexus
# In short: (§3)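 Pre- and postemergence greenhouse screen. Soil: loam + sand. Spray carrier: solvent mixture, non-phytotoxic, with surfactant. Post timing at 1–2 leaves, height 2–10 cm. Readout: visual injury on a 0–100 scale roughly 10 days after application, untreated plants as reference.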
# chickweed = experiment: Test C postemergence; format: in vivo, Stellaria media; conditions: for Plant response rating, Chickweed: scale 0 to 100 (0 no effect, 100 complete control)
# In short: as §2
# johnsongrass = experiment: Test C postemergence; format: in vivo, Sorghum halepense; conditions: for Plant response rating, Johnsongrass: scale 0 to 100 (0 no effect, 100 complete control)
# In short: as §2
# giant foxtail [3] = experiment: Test C postemergence; format: in vivo, Setaria faberii; conditions: for Plant response rating, Foxtail, Giant: scale 0 to 100 (0 no effect, 100 complete control)
# In short: as §2
# giant foxtail [4] = experiment: Test A preemergence; format: in vivo, Setaria faberii; conditions: 0 to 100 scale where 0 is no effect and 100 is complete control
# In short: as §3
# sedge, umbrella = experiment: Test B flooded paddy test; format: in vivo, Cyperus difformis; conditions: Flood, 250 g ai/ha; 0 to 100 scale where 0 is no effect and 100 is complete control
# In short: as §1
# Italian ryegrass = experiment: Test C postemergence; format: in vivo, Lolium multiflorum; conditions: for Plant response rating, Ryegrass, Italian: scale 0 to 100 (0 no effect, 100 complete control)
# In short: as §2
# large (Lg) crabgrass = experiment: Test C postemergence; format: in vivo, Digitaria sanguinalis; conditions: for Plant response rating, Crabgrass, Large: scale 0 to 100 (0 no effect, 100 complete control)
# In short: as §2
# pigweed [5] = experiment: Test A preemergence; format: in vivo, Amaranthus retroflexus; conditions: 0 to 100 scale where 0 is no effect and 100 is complete control
# In short: as §3
# barnyardgrass [6] = experiment: Test A preemergence; format: in vivo, Echinochloa crus-galli; conditions: 0 to 100 scale where 0 is no effect and 100 is complete control
# In short: as §3
# blackgrass = experiment: Test C postemergence; format: in vivo, Alopecurus myosuroides; conditions: for Plant response rating, Blackgrass: scale 0 to 100 (0 no effect, 100 complete control)
# In short: as §2
# [7] = 16 g ai/ha, postemergence, 0 is no effect, 100 is complete control
# [8] = 125 g ai/ha, postemergence, visual rating
# [9] = 31 g ai/ha, visual, approximately 10 days
compound,measurement,setting,value
N#Cc1cnn(-c2c(Br)cccc2Oc2ncc(Cl)cn2)c1 [Compound 140],"Plant response rating, Barnyardgrass",barnyardgrass [1],20
same,"Plant response rating (0 to 100), Corn",corn; [7],0
same,"Plant response rating, Corn",corn; [8],10
same,"Plant response rating, Corn","corn; Postemergence, 62 g ai/ha",10
same,"Plant response rating, Pigweed","pigweed [2]; 31 g ai/ha, 0 to 100 scale, 0 no effect, 100 complete control",90
same,Pigweed plant response rating,"pigweed [2]; 125 g ai/ha, 0 to 100 scale where 0 is no effect and 100 is complete control",100
same,"Plant response rating (0 to 100), Chickweed",chickweed; [7],30
same,"Plant response rating, Chickweed",chickweed; [8],70
same,"Plant response rating, Chickweed","chickweed; Postemergence, 62 g ai/ha",45
same,"Plant response rating (0 to 100), Johnsongrass",johnsongrass; [7],0
same,"Plant response rating, Johnsongrass",johnsongrass; [8],25
same,"Plant response rating, Johnsongrass","johnsongrass; Postemergence, 62 g ai/ha",5
same,"Plant response rating (0 to 100), Foxtail, Giant",giant foxtail [3]; [7],5
same,"Plant response rating, Foxtail, Giant",giant foxtail [3]; [8],20
same,"Plant response rating, Foxtail, Giant","giant foxtail [3]; Postemergence, 62 g ai/ha",20
same,"Plant response rating, Foxtail, Giant",giant foxtail [4]; [9],50
same,"Plant response rating, Foxtail, Giant",giant foxtail [4]; 125 g ai/ha,100
same,"Plant response rating, Sedge, Umbrella","sedge, umbrella",80
same,"Plant response rating (0 to 100), Ryegrass, Italian",Italian ryegrass; [7],0
same,"Plant response rating, Ryegrass, Italian",Italian ryegrass; [8],0
same,"Plant response rating, Ryegrass, Italian","Italian ryegrass; Postemergence, 62 g ai/ha",0
same,"Plant response rating (0 to 100), Crabgrass, Large",large (Lg) crabgrass; [7],10
same,"Plant response rating, Crabgrass, Large",large (Lg) crabgrass; [8],20
same,"Plant response rating, Crabgrass, Large","large (Lg) crabgrass; Postemergence, 62 g ai/ha",15
same,"Plant response rating, Pigweed",pigweed [5]; [9],90
same,"Plant response rating, Pigweed",pigweed [5]; 125 g ai/ha,100
same,"Plant response rating, Barnyardgrass",barnyardgrass [6]; [9],30
same,"Plant response rating, Barnyardgrass",barnyardgrass [6]; 125 g ai/ha,70
same,"Plant response rating (0 to 100), Blackgrass",blackgrass; [7],0
same,"Plant response rating, Blackgrass",blackgrass; [8],5
same,"Plant response rating, Blackgrass","blackgrass; Postemergence, 31 g ai/ha, 13 to 15 days",0
same,"Plant response rating, Blackgrass","blackgrass; Postemergence, 62 g ai/ha",0
